In this assay the test system is Sphaerotheca fuliginea. Nature of the assay: Field testing on melons, natural infection with Sphaerotheca fuliginea. The assay is classed as in vivo. Conditions: efficacy in % of untreated control, 3 applications. The method, then:
The visually determined percentages of infected leaf areas were converted into efficacies in % of the untreated control: The efficacy (E) is calculated as follows using Abbot's formula: W=(1−α/β)·100 • α corresponds to the fungicidal infection of the treated plants in % and • β corresponds to the fungicidal infection of the untreated (control) plants in % At an efficacy of 0, the infection level of the treated plants corresponds to that of the untreated control plants; at an efficacy of 100, the treated plants are not infected. The expected efficacies of active compound mixtures were determined using Colby's formula (S. R. Colby, “Calculating synergistic and antagonistic responses of herbicide combinations”, Weeds 15, pp. 20-22 (1967) and compared with the observed efficacies. E=x+y−x·y/100 • expected efficacy, expressed in % of the untreated control, when using the mixture of the active compounds A and B at the concentrations a and b • x efficacy, expressed in % of the untreated control, when using the active compound A at the concentration a • y efficacy, expressed in % of the untreated control, when using the active compound B at the concentration b The trial was carried out under standardized field conditions. Melons were grown in the field. After 36 days, an application with the recited products was carried out, which was repeated two times after 7 days and after 14 days. No further active components for pathogen control were applied. The infection with the pathogen Sphaerotheca fuliginea ensued naturally. Infestation in % of leaf area affected was scored 35 days after the first application. The visually determined values of % of leaf area infected was initially averaged and then converted into efficacies as % of the untreated control. An efficacy of 0 is the same infestation as the untreated control, an efficacy of 100% is 0% infestation. The expected efficacies of active compound combinations were determined as described above using Colby's formula and compared with the observed efficacies. The active compounds were used as commercially available compositions. […]

Molecules are shown by their SMILES.

Take `CC1COC(Cn2cncn2)(c2ccc(Oc3ccc(Cl)cc3)cc2Cl)O1` (stereo not drawn) [Difenoconazole, 1-{2-[2-chloro-4-(4-chlorophenoxy)phenyl]-4-methyl-[1,3]dioxolan-2-ylmethyl}-1H-[1,2,4]triazole]: the “Observed effect 35 days after first treatment” value (dose 30 g ai/ha, scored 35 days after first application) turned out to be 19%. With `COc1cc(C)c(C(=O)c2c(OC)ccc(Br)c2C)c(OC)c1OC` [Metrafenone, 3′-bromo-2,3,4,6′-tetramethoxy-2′,6-dimethylbenzophenone], the “Observed effect 35 days after first treatment” value is, setting by setting: (dose 50 g ai/ha, scored 35 days after first application) 46%; (dose 100 g ai/ha, leaf area infested scored 35 days after first application) 70%.

Source of the values: patent publication US20110086758A1, “Fungicidal compositions comprising 3'-bromo-2,3,4,6'-tetramethoxy-2',6-dimethylbenzophenone” (BASF SE, priority 2008, published 2011).
